The results in this text go back to ChEMBL document CHEMBL3039007, “Structure-based identification of OATP1B1/3 inhibitors” (Mol Pharmacol, 2013).

Data set [1] concerns the target T1, Solute carrier organic anion transporter family member 1B1 (Homo sapiens, UniProt Q9Y6L6).
T1 sequence (Q9Y6L6 whole entry): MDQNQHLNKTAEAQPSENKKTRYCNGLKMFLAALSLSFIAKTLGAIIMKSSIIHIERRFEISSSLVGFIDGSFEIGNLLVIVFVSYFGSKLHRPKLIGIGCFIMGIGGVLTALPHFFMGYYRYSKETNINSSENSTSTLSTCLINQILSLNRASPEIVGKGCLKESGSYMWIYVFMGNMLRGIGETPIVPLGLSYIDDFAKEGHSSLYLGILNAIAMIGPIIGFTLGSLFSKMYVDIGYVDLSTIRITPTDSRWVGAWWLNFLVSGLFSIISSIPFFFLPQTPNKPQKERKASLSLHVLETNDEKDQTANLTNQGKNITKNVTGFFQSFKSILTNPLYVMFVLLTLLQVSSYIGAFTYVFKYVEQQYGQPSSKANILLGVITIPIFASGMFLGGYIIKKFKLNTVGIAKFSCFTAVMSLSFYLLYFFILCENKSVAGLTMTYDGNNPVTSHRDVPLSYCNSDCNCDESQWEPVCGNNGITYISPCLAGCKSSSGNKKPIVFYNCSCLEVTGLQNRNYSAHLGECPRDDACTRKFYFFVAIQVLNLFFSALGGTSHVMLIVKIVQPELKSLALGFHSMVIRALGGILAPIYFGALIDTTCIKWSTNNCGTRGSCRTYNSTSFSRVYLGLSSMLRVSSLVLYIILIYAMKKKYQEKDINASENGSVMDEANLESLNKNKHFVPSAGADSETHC
Particulars: chinese hamster, cho, 10 µM.

For data set [2], the target named is T2, Solute carrier organic anion transporter family member 1B3 (Homo sapiens, UniProt Q9NPD5).
T2 sequence (Q9NPD5 whole entry): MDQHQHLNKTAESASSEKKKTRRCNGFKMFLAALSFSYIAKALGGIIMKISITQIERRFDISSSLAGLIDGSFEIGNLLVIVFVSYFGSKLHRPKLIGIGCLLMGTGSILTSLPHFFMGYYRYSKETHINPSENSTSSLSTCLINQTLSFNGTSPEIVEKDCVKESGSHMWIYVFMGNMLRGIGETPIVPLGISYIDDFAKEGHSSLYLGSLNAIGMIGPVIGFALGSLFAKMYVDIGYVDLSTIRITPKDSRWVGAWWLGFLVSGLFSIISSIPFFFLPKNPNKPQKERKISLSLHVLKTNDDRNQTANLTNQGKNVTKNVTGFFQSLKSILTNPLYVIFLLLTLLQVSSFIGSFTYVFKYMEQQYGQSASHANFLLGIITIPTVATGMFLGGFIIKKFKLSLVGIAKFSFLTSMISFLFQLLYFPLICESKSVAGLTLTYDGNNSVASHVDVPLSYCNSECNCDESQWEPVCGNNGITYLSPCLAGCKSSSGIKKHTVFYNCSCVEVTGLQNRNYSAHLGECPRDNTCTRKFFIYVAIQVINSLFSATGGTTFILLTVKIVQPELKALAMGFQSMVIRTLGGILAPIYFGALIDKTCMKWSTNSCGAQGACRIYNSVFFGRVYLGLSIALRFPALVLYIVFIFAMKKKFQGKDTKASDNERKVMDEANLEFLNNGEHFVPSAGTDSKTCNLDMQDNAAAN
To be noted: chinese hamster, cho, 10 µM.

For `C[C@@H]1CC[C@H]2C(C)(C)[C@H]3C[C@@]12CC[C@@]3(C)O` [CEDROL], the residual activity in data set [1] is given as 119.8%; in data set [2], 107.7%.

Regarding `CC(=O)O[C@]1(C)CC[C@@]23C[C@H]1C(C)(C)[C@@H]2CC[C@H]3C` [CEDRYL ACETATE], the residual activity in data set [1] is 134%; in data set [2] it was 116.5%.

With `N[C@@H](C(=O)N[C@@H]1C(=O)N2C(C(=O)O)=C(Cl)CS[C@H]12)c1ccccc1` [CEFACLOR ANHYDROUS], the results for the residual activity in data set [1] and in data set [2] were 84.74% and 114.4%, respectively.

As for `CC1=C(C(=O)O)N2C(=O)[C@@H](NC(=O)[C@H](N)c3ccc(O)cc3)[C@H]2SC1` [CEFADROXIL], the residual activity in data set [1] is reported as 88.52%; in data set [2], 101.2%.

As for `Cn1nnnc1SCC1=C(C(=O)[O-])N2C(=O)[C@@H](NC(=O)[C@H](OC=O)c3ccccc3)[C@H]2SC1.[Na+]` [CEFAMANDOLE NAFATE], the residual activity in data set [1] turned out to be 63%; in data set [2] it was 64.97%.

`Cc1nnc(SCC2=C(C(=O)[O-])N3C(=O)[C@@H](NC(=O)Cn4cnnn4)[C@H]3SC2)s1.[Na+]` [CEFAZOLIN SODIUM]: the residual activity is 84.25% in data set [1] and 95.92% in data set [2].

Turning to `CO/N=C(\C(=O)N[C@@H]1C(=O)N2C(C(=O)OCOC(=O)C(C)(C)C)=C(/C=C\c3scnc3C)CS[C@H]12)c1csc(N)n1` [CEFDITOREN PIVOXIL], the residual activity is on record as 64.03% in data set [1] and 82.75% in data set [2].

As to `CO[C@@]1(NC(=O)CSCC#N)C(=O)N2C(C(=O)[O-])=C(CSc3nnnn3C)CS[C@@H]21.[Na+]` [CEFMETAZOLE SODIUM], the results for the residual activity in data set [1] and in data set [2] were 123.3% and 108.6%, respectively.

Regarding `CO/N=C(\C(=O)N[C@@H]1C(=O)N2C(C(=O)[O-])=C(COC(C)=O)CS[C@H]12)c1csc(N)n1.[Na+]` [CEFOTAXIME SODIUM], the residual activity worked out at 104.1% in data set [1] and 119.2% in data set [2].

For `CO[C@@]1(NC(=O)Cc2cccs2)C(=O)N2C(C(=O)[O-])=C(COC(N)=O)CS[C@@H]21.[Na+]` [CEFOXITIN SODIUM], the residual activity in data set [1] stood at 68.58%; in data set [2], 82.79%.

In the case of `NC(=O)c1cc[n+](CC2=C(C(=O)[O-])N3C(=O)[C@@H](NC(=O)[C@@H](c4ccccc4)S(=O)(=O)[O-])[C@H]3SC2)cc1.[Na+]` [CEFSULODIN SODIUM], the residual activity stood at 91.84% in data set [1] and 101.2% in data set [2].

Regarding `Nc1nc(/C(=C/CC(=O)O)C(=O)N[C@@H]2C(=O)N3C(C(=O)O)=CCS[C@H]23)cs1` [CEFTIBUTEN], the residual activity in data set [1] is listed as 90.54%; in data set [2], 84.47%.

Regarding `CO/N=C(\C(=O)N[C@@H]1C(=O)N2C(C(=O)[O-])=C(COC(N)=O)CS[C@H]12)c1ccco1.[Na+]` [CEFUROXIME SODIUM], the residual activity in data set [1] worked out at 64.47%; in data set [2], 83.34%.

For `CC1=C(O)C(=O)C=C2C1=CC=C1[C@@]2(C)CC[C@@]2(C)[C@@H]3C[C@](C)(C(=O)O)CC[C@]3(C)CC[C@]12C` [CELASTROL], the residual activity in data set [1] is given as 147.4%; in data set [2], 90.72%.

As for `Cc1ccc(-c2cc(C(F)(F)F)nn2-c2ccc(S(N)(=O)=O)cc2)cc1` [CELECOXIB], the residual activity in data set [1] was determined as 108.3%; in data set [2] it was 142.8%.

As to `OC[C@H]1O[C@@H](O[C@H]2[C@H](O)[C@@H](O)[C@@H](O)O[C@@H]2CO)[C@H](O)[C@@H](O)[C@@H]1O` [CELLBIOSE], the residual activity turned out to be 90.6% in data set [1] and 109.6% in data set [2].

Consider `CN(C)CCOC(=O)COc1ccc(Cl)cc1.Cl` [CENTROPHENOXINE HYDROCHLORIDE], for which the residual activity in data set [1] came out at 70.12%; in data set [2], 88.3%.

Take `CC1=C(C(=O)O)N2C(=O)[C@@H](NC(=O)[C@H](N)c3ccccc3)[C@H]2SC1` [CEPHALEXIN ANHYDROUS]: the residual activity in data set [1] stood at 94.03%; in data set [2], 89.2%.

Broadly, the residual activity is the signal under treatment as a percentage of the control signal.
